Test results taken from patent publication US11591355B2 (Peloton Therapeutics, Inc., priority 2017, dated 2023).
pIC50: −log10 of the molar value. Where two headings read alike, the source gives them in different places.

Biological target: T1, Human CD73 (Homo sapiens, UniProt P21589)
T1 construct: purchased R&D Systems; host or cells: CHO cells
T1 sequence (P21589 27-549): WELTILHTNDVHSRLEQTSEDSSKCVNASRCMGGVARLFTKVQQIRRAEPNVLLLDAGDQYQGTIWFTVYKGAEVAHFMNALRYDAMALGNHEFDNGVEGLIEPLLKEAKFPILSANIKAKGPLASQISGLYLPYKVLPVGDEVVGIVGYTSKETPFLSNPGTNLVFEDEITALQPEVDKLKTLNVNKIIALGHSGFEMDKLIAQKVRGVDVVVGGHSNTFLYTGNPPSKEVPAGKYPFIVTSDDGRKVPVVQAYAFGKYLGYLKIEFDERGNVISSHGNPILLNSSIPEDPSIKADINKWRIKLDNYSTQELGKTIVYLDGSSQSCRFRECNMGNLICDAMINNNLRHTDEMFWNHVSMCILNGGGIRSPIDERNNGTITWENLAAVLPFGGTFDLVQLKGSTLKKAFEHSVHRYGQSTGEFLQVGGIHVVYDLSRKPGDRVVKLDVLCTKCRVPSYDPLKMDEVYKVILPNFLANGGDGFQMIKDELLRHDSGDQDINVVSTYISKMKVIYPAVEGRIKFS
Assay: CD73 Enzyme Assay
Format: biochemical

[1] = 0.25 nM hCD73, 25 μM AMP, kinetic read at 360 nm, read-out: CD73 Enzyme Assay IC50
[2] = read-out: CD73 Enzyme Assay IC50

pIC50 [1]	SMILES	other results
6.00 to 7.00	O=P(O)(O)COC[C@H]1O[C@@H](n2cnc3c(N4CCCC4c4ccccc4)ncnc32)[C@H](O)[C@@H]1O (stereo partly drawn) [Compound 45, [(2R,3S,4R,5R)-3,4-dihydroxy-5-[6-(2-phenylpyrrolidin-1-yl)-purin-9-yl]tetrahydro-furan-2-yl]methoxy-methylphosphonic acid]	
< 6.00	N#Cc1ncnc2c1ncn2[C@@H]1O[C@H](COCP(=O)(O)O)[C@@H](O)[C@H]1O [Compound 47, [(2R,3S,4R,5R)-5-(6-cyanopurin-9-yl)-3,4-dihydroxy-tetrahydro-furan-2-yl]methoxy-methylphosphonic acid]	
< 6.00	O=P(O)(O)COC[C@H]1O[C@@H](n2cnc3c(O)ncnc32)[C@H](O)[C@@H]1O [Compound 48]	
6.00 to 7.00	C[C@H](Nc1ncnc2c1ncn2[C@@H]1O[C@H](COCP(=O)(O)O)[C@@H](O)[C@H]1O)c1cccc(F)c1 [Compound 50, [(2R,3S,4R,5R)-5-[6-[[(1S)-1-(3-fluoro-phenyl)ethyl]amino]-purin-9-yl]-3,4-dihydroxy-tetrahydro-furan-2-yl]methoxy-methylphosphonic acid]	
6.00 to 7.00	C[C@H](Nc1ncnc2c1ncn2[C@@H]1O[C@H](COCP(=O)(O)O)[C@@H](O)[C@H]1O)c1ccccc1F [Compound 51, [(2R,3S,4R,5R)-5-[6-[[(1S)-1-(2-fluoro-phenyl)ethyl]amino]-purin-9-yl]-3,4-dihydroxy-tetrahydro-furan-2-yl]methoxy-methylphosphonic acid]	
< 6.00	O=P(O)(O)COC[C@H]1O[C@@H](n2cnc3c(-c4ccccc4F)ncnc32)[C@H](O)[C@@H]1O [Compound 53, [(2R,3S,4R,5R)-5-[6-(2-fluorophenyl)purin-9-yl]-3,4-dihydroxy-tetrahydrofuran-2-yl]methoxymethyl-phosphonic acid]	
< 6.00	N#Cc1cccc(CNc2ncnc3c2ncn3[C@@H]2O[C@H](COCP(=O)(O)O)[C@@H](O)[C@H]2O)c1 [Compound 58, [(2R,3S,4R,5R)-5-[6-[(3-cyanophenyl)-methylamino]purin-9-yl]-3,4-dihydroxy-tetrahydrofuran-2-yl]-methoxymethylphos-phonic acid]	
< 6.00	NS(=O)(=O)c1cccc(CNc2ncnc3c2ncn3[C@@H]2O[C@H](COCP(=O)(O)O)[C@@H](O)[C@H]2O)c1 [Compound 63]	
< 6.00	O=P(O)(O)COC[C@H]1O[C@@H](n2cnc3c(NCc4cccc(CO)c4)ncnc32)[C@H](O)[C@@H]1O [Compound 64, [(2R,3S,4R,5R)-3,4-dihydroxy-5-[6-[[3-(hydroxymethyl)-phenyl]methylamino]-purin-9-yl]tetrahydro-furan-2-yl]methoxy-methylphosphonic acid]	
< 6.00	NC(=O)c1cccc(CNc2ncnc3c2ncn3[C@@H]2O[C@H](COCP(=O)(O)O)[C@@H](O)[C@H]2O)c1 [Compound 65, [(2R,3S,4R,5R)-5-[6-[(3-carbamoylphenyl)-methylamino]purin-9-yl]-3,4-dihydroxy-tetrahydrofuran-2-yl]-methoxymethylphos-phonic acid]	
< 6.00	CS(=O)(=O)c1cccc(CNc2ncnc3c2ncn3[C@@H]2O[C@H](COCP(=O)(O)O)[C@@H](O)[C@H]2O)c1 [Compound 66]	
6.00 to 7.00	CNc1nc(C#N)nc2c1ccn2[C@@H]1O[C@H](COCP(=O)(O)O)[C@@H](O)[C@H]1O [Compound 118, [(2R,3S,4R,5R)-5-[2-cyano-4-(methyl-amino)pyrrolo[2,3-d]-pyrimidin-7-yl]-3,4-dihydroxy-tetrahydro-furan-2-yl]methoxy-methylphosphonic acid]	
6.00 to 7.00	N#Cc1nc(NC2CCCC2)c2c(C#N)cn([C@@H]3O[C@H](COCP(=O)(O)O)[C@@H](O)[C@H]3O)c2n1 [Compound 210, [(2R,3S,4R,5R)-5-[2,5-dicyano-4-(cyclopentyl-amino)pyrrolo[2,3-d]-pyrimidin-7-yl]-3,4-dihydroxy-tetrahydro-furan-2-yl]methoxy-methylphosphonic acid]	

The remaining lines, values behind:

SMILES	pIC50 [1]	other results
NS(=O)(=O)c1ccc(CNc2ncnc3c2ncn3[C@@H]2O[C@H](COCP(=O)(O)O)[C@@H](O)[C@H]2O)cc1 [Compound 59]		pIC50 [2]: < 6.00
O=P(O)(O)CS(=O)(=O)C[C@H]1O[C@@H](n2cnc3c(NCc4ccccc4)ncnc32)[C@H](O)[C@@H]1O [Compound 148]		pIC50 [2]: < 6.00
O=P(O)(O)C(SC[C@H]1O[C@@H](n2cnc3c(NCc4ccccc4)ncnc32)[C@H](O)[C@@H]1O)c1ccccc1 (stereo partly drawn) [Compound 149, [[(2S,3S,5R)-5-[6-(benzylamino)purin-9-yl]-3,4-dihydroxy-tetrahydrofuran-2-yl]methylsulfanyl-phenylmethyl]phos-phonic acid]	< 6.00	
O=P(O)(O)C(c1ccccc1)S(=O)(=O)C[C@H]1O[C@@H](n2cnc3c(NCc4ccccc4)ncnc32)[C@H](O)[C@@H]1O (stereo partly drawn) [Compound 150, [[(2S,3S,5R)-5-[6-(benzylamino)purin-9-yl]-3,4-dihydroxy-tetrahydrofuran-2-yl]methylsulfonyl-phenylmethyl]phos-phonic acid]	< 6.00	
O=P(O)(O)CSC[C@H]1O[C@@H](n2cnc3c(NCc4ccccc4)ncnc32)[C@H](O)[C@@H]1O [Compound 151, [(2S,3S,5R)-5-[6-(benzylamino)purin-9-yl]-3,4-dihydroxy-tetrahydrofuran-2-yl]methylsulfanyl-methylphosphonic acid]	< 6.00	
CC(C)(C)C(=O)OCOP(=O)(CS(=O)(=O)C[C@H]1O[C@@H](n2ccc3c(NC4CCCC4)nc(Cl)nc32)[C@H](O)[C@@H]1O)OCOC(=O)C(C)(C)C [Compound 165, (((((((2S,3S,4R,5R)-5-(2-chloro-4-(cyclopentylamino)-7H-pyrrolo[2,3-d]pyrimidin-7-yl)-3,4-dihydroxytetrahydrofuran-2-yl)methyl)sulfonyl)methyl)phosphoryl)bis(oxy))bis(methylene) bis(2,2-dimethylpropanoate)]	6.00 to 7.00	
CC(C)(C)C(=O)OCOP(=O)(C[S+]([O-])C[C@H]1O[C@@H](n2ccc3c(NC4CCCC4)nc(Cl)nc32)[C@H](O)[C@@H]1O)OCOC(=O)C(C)(C)C (stereo partly drawn) [Compound 166, [[(2S,3S,4R,5R)-5-[2-chloro-4-(cyclopentyl-amino)pyrrolo[2,3-d]-pyrimidin-7-yl]-3,4-dihydroxy-tetrahydro-furan-2-yl]methyl-sulfinylmethyl-(2,2-dimethylpropanoyloxy-methoxy)phosphoryl]-oxymethyl 2,2-dimethylpropanoate]	< 6.00	
CCOP(=O)(COC[C@H]1O[C@@H](n2ccc3c(NC4CCCC4)nc(Cl)nc32)[C@H](O)[C@@H]1O)OCC [Compound 185]		pIC50: < 6.00
CC(C)OC(=O)OCOP(=O)(COC[C@H]1O[C@@H](n2ccc3c(N4CC5CCCC5C4)nc(Cl)nc32)[C@H](O)[C@@H]1O)OCOC(=O)OC(C)C (stereo partly drawn) [Compound 208, [[(2R,3S,4R,5R)-5-[4-(3,3a,4,5,6,6a-hexa-hydro-1H-cyclopenta-[c]pyrrol-2-yl)-2-chloro-pyrrolo[2,3-d]-pyrimidin-7-yl]-3,4-dihydroxy-tetrahydro-furan-2-yl]methoxy-methyl-(isopropoxy-carbonyloxymethoxy)-phosphorl]oxymethyl isopropyl carbonate]	< 6.00	
